Assay results: the NIST ThermoML archive (doi:10.1016/j.jct.2007.11.009)

Details: Liquid, Vibrating tube method

c1ccccc1 [benzene]
mass density [kg/m3]
Details	298.15 K	308.15 K	318.15 K	328.15 K
100 kPa	873.5	862.9	852.3	841.5
2130 kPa	875.1	864.7	854.2	843.6
4150 kPa	876.7	866.4	856.1	845.6
6180 kPa	878.4	868.2	857.9	847.5
8210 kPa	879.9	869.9	859.7	849.5
10230 kPa	881.5	871.6	861.5	851.3
11250 kPa	882.3	872.4	862.4	852.3
12260 kPa	883.1	873.2	863.2	853.2
14290 kPa	884.6	874.8	865	855
16310 kPa	886.1	876.4	866.6	856.8
18340 kPa	887.6	878	868.3	858.6
20370 kPa	889.1	879.5	869.9	860.3
22390 kPa	890.5	881.1	871.6	862
24420 kPa	892	882.6	873.2	863.7
26450 kPa	893.4	884	874.7	865.3
28470 kPa	894.7	885.5	876.2	866.9
29490 kPa	895.4	886.2	877	867.8
30500 kPa	896.1	886.9	877.8	868.6
32530 kPa	897.5	888.4	879.2	870.1
34550 kPa	898.8	889.7	880.7	871.7
36580 kPa	900.1	891.1	882.1	873.1
38600 kPa	901.4	892.5	883.6	874.7
39620 kPa	902	893.2	884.3	875.4

CCCCCCCC [octane]
mass density [kg/m3]
Details	298.15 K	308.15 K	318.15 K	328.15 K
100 kPa	698.7	690.8	682.8	674.5
2130 kPa	700.4	692.6	684.7	676.6
4150 kPa	702.2	694.4	686.7	678.7
6180 kPa	703.8	696.2	688.6	680.7
8210 kPa	705.4	698	690.4	682.6
10230 kPa	707	699.7	692.2	684.6
11250 kPa	707.8	700.5	693.1	685.5
12260 kPa	708.6	701.3	694	686.4
14290 kPa	710.1	703	695.7	688.3
16310 kPa	711.7	704.5	697.4	690.1
18340 kPa	713.1	706.1	699.1	691.8
20370 kPa	714.6	707.6	700.7	693.6
22390 kPa	715.9	709.1	702.3	695.2
24420 kPa	717.4	710.6	703.9	696.9
26450 kPa	718.8	712	705.4	698.5
28470 kPa	720.1	713.4	706.9	700
29490 kPa	720.8	714.1	707.6	700.8
30500 kPa	721.4	714.8	708.3	701.6
32530 kPa	722.7	716.2	709.7	703
34550 kPa	724	717.5	711.2	704.5
36580 kPa	725.3	718.8	712.5	706
38600 kPa	726.5	720.2	713.9	707.4
39620 kPa	727.1	720.8	714.6	708.1
